In patent publication US7858618B2, “Compounds” (Boehringer Ingelheim International GmbH, priority 2006, dated 2010):

Biological target: T1, hBK1 receptor (Homo sapiens, UniProt P46663)
T1 construct: expressed in transfected cells; host or cells: CHO cells
T1 sequence (P46663 1-353): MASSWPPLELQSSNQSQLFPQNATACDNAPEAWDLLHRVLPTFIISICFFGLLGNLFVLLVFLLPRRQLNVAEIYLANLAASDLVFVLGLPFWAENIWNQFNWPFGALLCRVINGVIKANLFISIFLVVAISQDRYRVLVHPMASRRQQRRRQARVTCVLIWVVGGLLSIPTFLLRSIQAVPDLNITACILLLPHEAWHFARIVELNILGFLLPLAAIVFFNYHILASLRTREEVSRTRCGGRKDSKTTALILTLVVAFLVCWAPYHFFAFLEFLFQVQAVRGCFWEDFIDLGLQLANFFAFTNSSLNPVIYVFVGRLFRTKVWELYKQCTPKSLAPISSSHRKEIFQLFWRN
Test: hBK1 receptor binding (displacement of [3H]-kallidin (DesArg10, Leu9) from membranes of CHO cells expressing the hBK1 receptor)
Settings: CHO cell membranes expressing hBK1 receptor; 0.5 to 1.0 nM [3H]-kallidin (DesArg10, Leu9); 60 minutes at room temperature
Protocol: Description of the Method of hBK1 Receptor Binding
CHO cells expressing the hBK1 receptor are cultivated in Dulbecco's modified medium. The medium from confluent cultures is removed and the cells are washed with PBS buffer, scraped off and isolated by centrifugation. The cells are then homogenized in suspension and the homogenate is centrifuged and resuspended. The protein content is determined and the membrane preparation obtained in this manner is then frozen at −80° C.
After thawing, 200 μl of the homogenate (50 to 100 μg of proteins/assay) are incubated at room temperature with 0.5 to 1.0 nM of kallidin (DesArg10, Leu9), [3,4-prolyl-3,43H(N)] and increasing concentrations of the test substance in a total volume of 250 μl for 60 minutes. The incubation is terminated by rapid filtration through GF/B glass fibre filters which had been pretreated with polyethyleneimine (0.3%). The protein-bound radioactivity is measured in a TopCount NXT. Non-specific binding is defined as radioactivity bound in the presence of 1.0 μM of kallidin (DesArg10, Leu9), [3,4-prolyl-3,43H(N)]. The concentration/binding curve is analysed using a computer-assisted nonlinear curve fitting. The Ki which corresponds to the test substance is determined using the data obtained in this manner. […]

SMILES | Ki
CN(CCC(=O)Nc1ccc(N2CCN(c3ccncc3)CC2)cc1)S(=O)(=O)c1cccc(Cl)c1Cl [(1)] | 6.2 nM
COc1cc(C)c(S(=O)(=O)N(C)CCC(=O)Nc2ccc(N3CCN(c4ccncc4)CC3)nc2)c(C)c1 [(22)] | 7 nM
COc1cc(C)c(S(=O)(=O)N(C)CCOCC(=O)N(C)Cc2ccc(CNC(C)C)cc2)c(C)c1 [(59)] | 6.3 nM
COc1cc(C)c(S(=O)(=O)N(C)CCOCC(=O)N(C)Cc2ccc(-c3cn4ccccc4n3)cc2)c(C)c1 [(73)] | 6.8 nM
CCC(CC)NCc1ccc(CN(C)C(=O)COCCN(C)S(=O)(=O)c2c(C)cc(OC)cc2C)cc1 [(77)] | 8.7 nM
CCN(CC)CC1CCN(c2ccc(NC(=O)CCN(C)S(=O)(=O)c3c(C)cc(OC)cc3C)cc2C)CC1 [(97)] | 6.7 nM
COc1cc(C)c(S(=O)(=O)N(C)CCOCC(=O)N(C)Cc2ccc(CN3CCCC3)cc2)c(C)c1 [(109)] | 6 nM
CCN(CC)CC1CCN(c2ccc(NC(=O)CCN(C)S(=O)(=O)c3c(C)cc(OC)cc3C)cc2Cl)CC1 [(181)] | 7.1 nM
COc1cc(C)c(S(=O)(=O)N(C)CCC(=O)Nc2cc(F)c(N3CCC(N(C)C)CC3)cc2C)c(C)c1 [(183)] | 6.6 nM
COc1cc(C)c(S(=O)(=O)N(C)CCC(=O)NC2CCN(c3ccc(CN4CCCC4)cc3Cl)CC2)c(C)c1 [(188)] | 9.4 nM
COc1cc(C)c(S(=O)(=O)N(C)CCC(=O)Nc2ccc(N3CCN(c4cc[n+](C)cc4)CC3)cc2)c(C)c1 [(227)] | 4.8 nM
COc1cc(C)c(S(=O)(=O)N(C)CCC(=O)NCc2ccc(N3CCC(N4CCCC4)CC3)c(C)c2)c(C)c1 [(269)] | 7.8 nM
COc1cc(C)c(S(=O)(=O)N(C)CCC(=O)N[C@H]2CC[C@H](N3CCC(CCN4CCCC4)CC3)CC2)c(C)c1 [(303)] | 6.32 nM
COc1cc(C)c(S(=O)(=O)N(C)CCOCC(=O)N(C)Cc2ccc(C3CCN(C)CC3)cc2)c(C)c1 [(326)] | 6.5 nM
COc1cc(C)c(S(=O)(=O)N(C)CCOCC(=O)N(C)Cc2ccc(N3CCC(N(C)C)C3)cc2)c(C)c1 (stereo not shown) [(334)] | 8.65 nM
COc1cc(C)c(S(=O)(=O)N(C)CCOCC(=O)N(C)Cc2ccc(N3CCCC3CN(C)C)cc2)c(C)c1 (stereo not shown) [(335)] | 9.37 nM
COc1cc(C)c(S(=O)(=O)N(C)CCOCC(=O)N(C)Cc2ccc(OCCN(C)C)c(Cl)c2)c(C)c1 [(352)] | 9.2 nM
COc1cc(C)c(S(=O)(=O)N(C)CCOCC(=O)N(C)Cc2ccc(N3CCC(N4CCCC4)C3)cc2)c(C)c1 (stereo not shown) [(353)] | 6.1 nM
COc1cc(C)c(S(=O)(=O)N(C)CCOCC(=O)N(C)Cc2ccc(N3CCC(N(C)C)C3)cc2Cl)c(C)c1 (stereo not shown) [(356)] | 8.8 nM
COc1cc(C)c(S(=O)(=O)N(C)CCOCC(=O)N(C)Cc2ccc3[nH]c(N)nc3c2)c(C)c1 [(361)] | 7.4 nM
COc1cc(C)c(S(=O)(=O)N(C)CCOCC(=O)N(C)Cc2ccc(N3CCCC(N(C)C)C3)cc2C)c(C)c1 (stereo not shown) [(381)] | 8.1 nM
COc1cc(C)c(S(=O)(=O)N(C)CCOCC(=O)N(C)C[C@H]2CC[C@@H](NCCN(C)C)CC2)c(C)c1 [(383)] | 6.2 nM
COc1cc(C)c(S(=O)(=O)N(C)CCOCC(=O)N(C)CC2CCN(C3CCN(C)CC3)CC2)c(C)c1 [(384)] | 9.3 nM
COc1cc(C)c(S(=O)(=O)N(C)CCOCC(=O)N(C)Cc2ccc(N3CC[C@@H](N(C)C)C3)cc2)c(C)c1 [(385)] | 6.4 nM
COc1cc(C)c(S(=O)(=O)N(C)CCOCC(=O)N(C)C(C)c2ccc3c(c2)CCN(C)CC3)c(C)c1 (stereo not shown) [(386)] | 6.3 nM
COc1cc(C)c(S(=O)(=O)N(C)CCOCC(=O)N(C)C[C@H]2CC[C@H](CN3CCC3)CC2)c(C)c1 [(392)] | 8.3 nM
COc1cc(C)c(S(=O)(=O)N(C)CCOCC(=O)N(C)C2CCN(C3CCN(C)CC3)CC2)c(C)c1 [(397)] | 7.5 nM
COc1cc(C)c(S(=O)(=O)N(C)CCOCC(=O)N(C)Cc2ccc(OCC3CCCN3C)cc2)c(C)c1 (stereo not shown) [(402)] | 9.3 nM

The remaining compounds from weak to strong by Ki, led by results:

Ki | SMILES
5.8 nM | COc1cc(C)c(S(=O)(=O)N(C)CCOCC(=O)N(C)Cc2ccc(CNC(C)(C)C)cc2)c(C)c1 [(78)]
5.7 nM | COc1cc(C)c(S(=O)(=O)N(C)CCCCC(=O)N(C)CC2CCN(c3ccncc3)CC2)c(C)c1 [(130)]
5.2 nM | COc1cc(C)c(S(=O)(=O)N(C)CCC(=O)Nc2ccc(N3CCC(N(C)C)CC3)c(Cl)c2)c(C)c1 [(180)]
5 nM | COc1cc(C)c(S(=O)(=O)N(C)CCOCC(=O)N(C)Cc2ccc(CN(C)C3CCCC3)cc2)c(C)c1 [(102)]
4.9 nM | COc1cc(C)c(S(=O)(=O)N(C)CCC(=O)NC2CCN(c3ncc(CN4CCCC4)cc3Cl)CC2)c(C)c1 [(216)]
4.8 nM | COc1cc(C)c(S(=O)(=O)N(C)CCC(=O)Nc2ccc(N3CCC(CCN(C)C)CC3)c(Cl)c2)c(C)c1 [(182)]
4.6 nM | COc1cc(C)c(S(=O)(=O)N(C)CCOCC(=O)N(C)Cc2ccc(-c3cn(C)cn3)cc2)c(C)c1 [(66)]
4.4 nM | COc1cc(C)c(S(=O)(=O)N(C)CCOCC(=O)N(C)CC2CCN(c3cc[n+](C)cc3)CC2)c(C)c1 [(114)]
4.4 nM | COc1cc(C)c(S(=O)(=O)N(C)CCOCC(=O)N(C)Cc2ccc3nc(N)ccc3c2)c(C)c1 [(360)]
3.8 nM | COc1cc(C)c(S(=O)(=O)N(C)CCOCC(=O)N(C)Cc2ccc3c(c2)nc(N)n3C)c(C)c1 [(369)]
3.7 nM | COc1cc(C)c(S(=O)(=O)N(C)CCOCC(=O)N(C)Cc2ccc(N(C)CCN(C)C)cc2C)c(C)c1 [(389)]
3.5 nM | COc1cc(C)c(S(=O)(=O)N(C)CCOCC(=O)N(C)Cc2ccc(OCCN3CCCC3)cc2)c(C)c1 [(358)]
3.4 nM | COc1cc(C)c(S(=O)(=O)N(C)CCC(=O)Nc2cc(C)c(N3CCC(N(C)C)CC3)cc2Cl)c(C)c1 [(186)]
3.3 nM | COc1cc(C)c(S(=O)(=O)N(C)CCOCC(=O)N(C)CC2CCN(c3ccncc3)CC2)c(C)c1 [(61)]
3 nM | COc1cc(C)c(S(=O)(=O)N(C)CCOCC(=O)N(C)[C@H]2CCN(C3CCN(C(C)C)CC3)C2)c(C)c1 [(399)]
2.8 nM | COc1cc(C)c(S(=O)(=O)N(C)CCOCC(=O)N(C)Cc2ccc(CNC3CCCC3)cc2)c(C)c1 [(72)]
2.8 nM | COc1cc(C)c(S(=O)(=O)N(C)CCOCC(=O)N(C)Cc2ccc(N(C)CCN(C)C)cc2)c(C)c1 [(323)]
2.8 nM | COc1cc(C)c(S(=O)(=O)N(C)CCOCC(=O)N(C)Cc2ccc3[nH]c(CN(C)C)nc3c2)c(C)c1 [(404)]

Ki | SMILES
2.7 nM | CNc1ccc2cc(CN(C)C(=O)COCCN(C)S(=O)(=O)c3c(C)cc(OC)cc3C)ccc2n1 [(367)]
2.7 nM | CCN1CCC(N2CC[C@H](N(C)C(=O)COCCN(C)S(=O)(=O)c3c(C)cc(OC)cc3C)C2)CC1 [(401)]
2.4 nM | COc1cc(C)c(S(=O)(=O)N(C)CCOCC(=O)N(C)CC2CCN(c3ccnc(C)c3)CC2)c(C)c1 [(53)]
2.4 nM | COc1cc(C)c(S(=O)(=O)N(C)CCOCC(=O)N(C)Cc2ccc3nc(N(C)C)ccc3c2)c(C)c1 [(365)]
2.39 nM | COc1cc(C)c(S(=O)(=O)N(C)CCOCC(=O)N(C)CC2CCC(NCCN(C)C)CC2)c(C)c1 (stereo not shown) [(372)]
2.1 nM | COc1cc(C)c(S(=O)(=O)N(C)CCC(=O)Nc2ccc(N3CCN(c4ccncc4)CC3)cc2)c(C)c1 [(13)]
1.6 nM | COc1cc(C)c(S(=O)(=O)N(C)CCOCC(=O)N(C)[C@H]2CCN(C3CCN(C)CC3)C2)c(C)c1 [(393)]
1.52 nM | COc1cc(C)c(S(=O)(=O)N(C)CCOCC(=O)N(C)Cc2ccc3nc(NCCN(C)C)ccc3c2)c(C)c1 [(368)]
1.3 nM | COc1cc(C)c(S(=O)(=O)N(C)CCC(=O)Nc2cc(Br)c(N3CCC(N(C)C)CC3)cc2C)c(C)c1 [(184)]
1.2 nM | COc1cc(C)c(S(=O)(=O)N(C)CCOCC(=O)N(C)C2CCc3cc(OCCN4CCCC4)ccc32)c(C)c1 (stereo not shown) [(418)]
1.11 nM | COc1cc(C)c(S(=O)(=O)N(C)CCOCC(=O)N(C)Cc2ccc(CN3CCCC3)cc2C)c(C)c1 [(338)]
0.99 nM | COc1cc(C)c(S(=O)(=O)N(C)CCOCC(=O)N(C)Cc2ccc(-c3c[nH]c(C)n3)cc2)c(C)c1 [(117)]
0.94 nM | COc1cc(C)c(S(=O)(=O)N(C)CCOCC(=O)N(C)Cc2ccc(NCCN(C)C)cc2)c(C)c1 [(325)]
0.79 nM | CCN1CCC(N2CC[C@@H](N(C)C(=O)COCCN(C)S(=O)(=O)c3c(C)cc(OC)cc3C)C2)CC1 [(400)]
0.74 nM | COc1cc(C)c(S(=O)(=O)N(C)CCOCC(=O)N(C)[C@@H]2CCN(C3CCN(C(C)C)CC3)C2)c(C)c1 [(398)]
0.7 nM | COc1cc(C)c(S(=O)(=O)N(C)CCOCC(=O)N(C)Cc2ccc(-c3cn4c(n3)CCCC4)cc2)c(C)c1 [(55)]
0.65 nM | COc1cc(C)c(S(=O)(=O)N(C)CCOCC(=O)N(C)C2CCC(N3CCC(CN4CCCC4)CC3)CC2)c(C)c1 (stereo not shown) [(419)]
0.4 nM | COc1cc(C)c(S(=O)(=O)N(C)CCOCC(=O)N(C)Cc2ccc(-c3cn(C)c(C)n3)cc2)c(C)c1 [(67)]
